The values below come from patent publication US20110028490A1, “4-PHENYL-PIPERAZIN-1-YL-ALKYL-BENZOIMIDAZOL-2-ONE DERIVATIVES AND THEIR USE AS MONOAMINE NEUROT[…]-UPTAKE IN-HIBITORS” (N[…]/S, priority 2008, published 2011).

Structures can show the parent of a compound that is named as a salt.

What all share (type): biochemical
For assay [1], the system named is serotonine (5-HT) reuptake in synaptosomes. Briefly: Inhibition of 5-HT reuptake in synaptosomes. Conditions: 3H-5-HT, read-out: 5-HT-uptake IC50. The protocol:
(§1) Compounds were tested for their ability to inhibit the reuptake of the monoamine neurotransmitters dopamine (DA) noradrenaline (NA) and serotonine (5-HT) in synaptosomes as described in WO 97/16451 (NeuroSearch A/S).
(§2) The test values are given as IC50 (the concentration (μM) of the test substance which inhibits the specific binding of ^3H-DA, ^3H-NA, or ^3H-5-HT by 50%).

Assay [2] concerns dopamine (DA) reuptake in synaptosomes. The assay is described as follows: Inhibition of DA reuptake in synaptosomes. As to conditions: 3H-DA, read-out: DA-uptake IC50. The protocol: as §1, §2
The subject of assay [3] is noradrenaline (NA) reuptake in synaptosomes. Briefly: Inhibition of NA reuptake in synaptosomes. Conditions: 3H-NA, read-out: NA-uptake IC50. The procedure:
as §1, §2

On to `C=C(C)n1c(=O)n(CCN2CCN(c3ccc(Cl)c(Cl)c3)CC2)c2ccccc21` [Compound A1, 1-{2-[4-(3,4-Dichloro-phenyl)-piperazin-1-yl]-ethyl}-3-isopropenyl-1,3-dihydro-benzoimidazol-2-one fumaric acid salt], for which the IC50 in assay [1] is 1 nM; in assay [2], 1100 nM; in assay [3] it was 1070 nM.
For `O=c1n(CCN2CCN(c3ccc(Cl)cc3)CC2)c2ccccc2n1C1=CCCCC1` [Compound A3, 1-{2-[4-(4-Chloro-phenyl)-piperazin-1-yl]-ethyl}-3-cyclohex-1-enyl-1,3-dihydro-benzoimidazol-2-one fumaric acid salt], in that order: 22 nM, 430 nM and more than 1000 nM.

A word on the IC50: it is the concentration that inhibits the measured activity by half.
